Data: patent US9089499B2, “Para-coumaric acid or para-hydroxycinnamic acid derivatives and their use in cosmetic or dermatological compositions” (BASF Beauty Care Solutions France S.A.S., priority 2005, dated 2015)
Where two headings read alike, the source gives them in different places.

How the values were obtained:
Human tyrosinase [1] = molecular target: T1, Human tyrosinase (Homo sapiens, UniProt P14679); assay: In vitro test of inhibition of human tyrosinase from melanocyte extracts (L-dopa/MBTH, OD 490 nm); assay type: biochemical; conditions: melanocyte extract
T1 construct: endogenous in cells; host or cells: normal human melanocytes (abdominal surgery; several donors of fair, brown and black phototypes)
T1 sequence (P14679 19-529): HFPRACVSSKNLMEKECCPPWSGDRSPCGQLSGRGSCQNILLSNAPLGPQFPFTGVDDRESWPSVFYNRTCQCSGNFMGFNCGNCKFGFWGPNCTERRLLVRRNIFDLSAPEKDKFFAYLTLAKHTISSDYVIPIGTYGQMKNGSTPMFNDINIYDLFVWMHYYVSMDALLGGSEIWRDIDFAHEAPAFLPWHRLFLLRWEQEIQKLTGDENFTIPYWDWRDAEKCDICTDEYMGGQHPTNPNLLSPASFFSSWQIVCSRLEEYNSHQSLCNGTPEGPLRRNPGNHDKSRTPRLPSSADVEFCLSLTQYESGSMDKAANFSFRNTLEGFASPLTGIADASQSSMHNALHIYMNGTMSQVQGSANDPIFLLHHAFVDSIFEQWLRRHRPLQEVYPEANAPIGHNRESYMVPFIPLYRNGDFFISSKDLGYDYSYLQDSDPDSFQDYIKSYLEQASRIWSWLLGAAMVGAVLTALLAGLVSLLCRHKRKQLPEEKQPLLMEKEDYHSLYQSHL

guinea pigs = assay: Skin sensitization potential in guinea pigs (Magnusson and Kligmann maximization test); assay type: in vivo; conditions: 10% in a 0.5% xanthan gel
From the text: The preparations described are subjected to the maximization test described by Magnusson and Kligmann, which protocol is in accordance with the OCDE guideline No. 406.

in vivo = conditions: both, rat, po
Procedure: (§1) The toxicology tests were performed on the compound obtained according to Example 1 incorporated at 10% into a 0.5% xanthan gel, by ocular evaluation on rabbits, by studying the absence of abnormal toxicity via single oral administration to rats, and by studying the sensitizing power on guinea pigs.
(§2) The preparations described were administered in a single portion orally at a dose of 2 g/kg of body weight, to 5 male rats and 5 female rats according to a protocol inspired by the OCDE Directive No. 401 of 24 February 1987 and adapted to cosmetic products.

rats = assay: in vivo; conditions: both, rat, po
Procedure: as §1, §2

fungal tyrosinase = assay: In vitro test of inhibition of isolated fungal tyrosinase (L-dopa, dopachrome OD 490 nm); assay type: biochemical; conditions: 490 nm
eye of rabbits = assay: Ocular irritation in rabbits; assay type: in vivo; conditions: 10% in a 0.5% xanthan gel; pure, 0.1 ml single instillation, rabbit eye
Procedure: The preparations described above were instilled pure, in a single application, at a rate of 0.1 ml, into the eye of 3 rabbits according to the method recommenced by the OCDE Directive No. 405 of 24 February 1987 concerning the study of the “acute irritant/corrosive effect on the eyes”.

skin of rabbits = assay: Primary skin irritation in rabbits; assay type: in vivo; conditions: 10% in a 0.5% xanthan gel; undiluted, 0.5 ml to the skin of rabbits
Procedure: The preparations described above are applied without dilution at a dose of 0.5 ml to the skin of 3 rabbits according to the method recommended by the OCDE Directive concerning the study of “the acute irritant/corrosive effect on the skin”. The products are classified according to the criteria defined by the decree of 1/2/1982 published in the JORF of 21/02/82.

Human tyrosinase [2] = molecular target: T1, Human tyrosinase; assay: Inhibition of human tyrosinase after 24 h application to normal human melanocytes in monolayer; assay type: cell-based; conditions: for inhibition at 1000 µM: 10^−3 M

COc1cc(/C=C/C(=O)NCCc2ccc(O)c(O)c2)ccc1O [Example 1, N-trans-feruloyldopamine]
inhibition at 100 µM (Human tyrosinase [1]; 10^−4M, read-out: Inhibition of human tyrosinase, percentage of inhibition, Mean 10^−4M): 0% | inhibition at 10 µM (Human tyrosinase [1]; 10^−5M, read-out: Inhibition of human tyrosinase, percentage of inhibition, Mean 10^−5M): 0% | Skin sensitization classification (guinea pigs): not sensitizing on contact with the skin | LD50 (in vivo): > 2000 mg/kg | LD0 (rats): greater than 2000 mg/kg | Inhibition of fungal tyrosinase, percentage of inhibition, Mean 10^−4M (fungal tyrosinase; 10^−4M): 9.18% | Inhibition of fungal tyrosinase, percentage of inhibition, Mean 10^−5M (fungal tyrosinase; 10^−5M): 0% | Ocular irritation classification (eye of rabbits): non-irritant to the eyes | Primary skin irritation classification (skin of rabbits): non-irritant to the skin | inhibition at 100 µM (Human tyrosinase [2]; 10^−4M, 24 hours, read-out: Inhibition of human tyrosinase after application to normal human melanocytes, percentage of inhibition, Mean 10^−4M): 62.3% | inhibition at 10 µM (Human tyrosinase [2]; 10^−5M, 24 hours, read-out: Inhibition of human tyrosinase after application to normal human melanocytes, percentage of inhibition, Mean 10^−5M): 29.4% | inhibition at 1000 µM (Human tyrosinase [2]; B103, Donor B, brown phototype, read-out: Inhibition of tyrosinase, Mean Donor B, 10^−3 M): 87.2% | inhibition at 100 µM (Human tyrosinase [2]; B104, Donor B, brown phototype, 10^−4 M, read-out: Inhibition of tyrosinase, Mean Donor B, 10^−4 M): 65.8% | inhibition at 100 µM (Human tyrosinase [2]; Donor 1, fair phototype, 10^−4 M, read-out: Inhibition of tyrosinase, Mean 10^−4 M, Donor 1): 63.9% | inhibition at 10 µM (Human tyrosinase [2]; Donor 1, fair phototype, 10^−5 M, read-out: Inhibition of tyrosinase, Mean 10^−5 M, Donor 1): 35.8% | inhibition at 100 µM (Human tyrosinase [2]; Donor 2, fair phototype, 10^−4 M, read-out: Inhibition of tyrosinase, Mean 10^−4 M, Donor 2): 59.9% | inhibition at 10 µM (Human tyrosinase [2]; Donor 2, fair phototype, 10^−5 M, read-out: Inhibition of tyrosinase, Mean 10^−5 M, Donor 2): 12.9% | inhibition at 100 µM (Human tyrosinase [2]; Donor 3, fair phototype, 10^−4 M, read-out: Inhibition of tyrosinase, Mean 10^−4 M, Donor 3): 50.2% | inhibition at 10 µM (Human tyrosinase [2]; Donor 3, fair phototype, 10^−5 M, read-out: Inhibition of tyrosinase, Mean 10^−5 M, Donor 3): 18.9% | inhibition at 1000 µM (Human tyrosinase [2]; Donor A, brown phototype, read-out: Inhibition of tyrosinase, Mean Donor A, 10^−3 M): 99.4% | inhibition at 100 µM (Human tyrosinase [2]; Donor A, brown phototype, 10^−4 M, read-out: Inhibition of tyrosinase, Mean Donor A, 10^−4 M): 59.2% | inhibition at 10 µM (Human tyrosinase [2]; Donor A, brown phototype, 10^−5 M, read-out: Inhibition of tyrosinase, Mean Donor A, 10^−5 M): 29.3% | inhibition at 10 µM (Human tyrosinase [2]; Donor B, brown phototype, 10^−5 M, read-out: Inhibition of tyrosinase, Mean Donor B, 10^−5 M): 20.8% | inhibition at 100 µM (Human tyrosinase [2]; Donor S, fair phototype, 10^−4 M, read-out: Inhibition of tyrosinase, Mean 10^−4 M, Donor S): 62.3% | inhibition at 10 µM (Human tyrosinase [2]; Donor S, fair phototype, 10^−5 M, read-out: Inhibition of tyrosinase, Mean 10^−5 M, Donor S): 29.4%
